“And” between values parts separate entries of the source, which are not always exact repeats. Equal entries are not always repeated. Blank lines part the entries; values can stand above or below the compound they belong to.
Tested on: 354836-022-R-J1-PDC multicell spheroid viability
Assay: Anticancer human tumor 354836-022-R-J1-PDC patient-derived head and neck squamous cell carcinoma cell line growth inhibition [PI3K]
Conditions: for viability, T/C: stronger effect = lower value
Outline: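 Stroma-containing spheroids: tumor line, pooled-donor HUVEC, hMSC. Treatments: targeted agents with PI3K inhibitors. Dosing: clinically relevant, half-log spacing, 10 microM ceiling without known Cmax. Read-out: cell viability.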

[1] = curve of first compound, second compound 0.0316 µM
[2] = curve of first compound, second compound 0.1 µM
[3] = curve of first compound, second compound 0.316 µM
[4] = curve of first compound, second compound 1 µM
[5] = curve of first compound, second compound 3.16 µM
[6] = curve of first compound, second compound 10 µM
[7] = second compound 0.0316 µM, first compound 0.0316 µM
[8] = second compound 0.0316 µM, first compound 0.1 µM
[9] = second compound 0.0316 µM, first compound 0.316 µM
[10] = second compound 0.0316 µM, first compound 1 µM
[11] = second compound 0.0316 µM, first compound 3.16 µM
[12] = second compound 0.0316 µM, first compound 10 µM
[13] = second compound 0.1 µM, first compound 0.0316 µM
[14] = second compound 0.1 µM, first compound 0.1 µM
[15] = second compound 0.1 µM, first compound 0.316 µM
[16] = second compound 0.1 µM, first compound 1 µM
[17] = second compound 0.1 µM, first compound 3.16 µM
[18] = second compound 0.1 µM, first compound 10 µM
[19] = second compound 0.316 µM, first compound 0.0316 µM
[20] = second compound 0.316 µM, first compound 0.1 µM
[21] = second compound 0.316 µM, first compound 0.316 µM
[22] = second compound 0.316 µM, first compound 1 µM
[23] = second compound 0.316 µM, first compound 3.16 µM
[24] = second compound 0.316 µM, first compound 10 µM
[25] = second compound 1 µM, first compound 0.0316 µM
[26] = second compound 1 µM, first compound 0.1 µM
[27] = second compound 1 µM, first compound 0.316 µM
[28] = second compound 1 µM, first compound 1 µM
[29] = second compound 1 µM, first compound 3.16 µM
[30] = second compound 1 µM, first compound 10 µM
[31] = second compound 3.16 µM, first compound 0.0316 µM
[32] = second compound 3.16 µM, first compound 0.1 µM
[33] = second compound 3.16 µM, first compound 0.316 µM
[34] = second compound 3.16 µM, first compound 1 µM
[35] = second compound 3.16 µM, first compound 3.16 µM
[36] = second compound 3.16 µM, first compound 10 µM
[37] = second compound 10 µM, first compound 0.0316 µM
[38] = second compound 10 µM, first compound 0.1 µM
[39] = second compound 10 µM, first compound 0.316 µM
[40] = second compound 10 µM, first compound 1 µM
[41] = second compound 10 µM, first compound 3.16 µM
[42] = second compound 10 µM, first compound 10 µM
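Note: spheroids exposed to agents for seven days before the viability read.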

- IC50 [1]: > 10 µM
- IC50 [2]: > 10 µM
- IC50 [3]: > 10 µM
- IC50 [4]: > 10 µM
- IC50 [5]: > 10 µM
- IC50 [6]: > 10 µM
Compound: C#Cc1c(F)ccc2cc(O)cc(-c3ncc4c(N5CC6CCC(C5)N6)nc(OCC56CCCN5CC(F)C6)nc4c3F)c12 (configuration not stated) + CC(Nc1ncnc2nc[nH]c12)c1cc2cccc(Cl)c2c(=O)n1-c1ccccc1
- viability, T/C [7]: 94.8%
- viability, T/C [8]: 85%
- viability, T/C [9]: 88.6%
- viability, T/C [10]: 105%
- viability, T/C [11]: 85.5%
- viability, T/C [12]: 96.4%
- viability, T/C [13]: 84.9%
- viability, T/C [14]: 105%
- viability, T/C [15]: 96.4%
- viability, T/C [16]: 96.2%
- viability, T/C [17]: 110%
- viability, T/C [18]: 102%
- viability, T/C [19]: 85.4%
- viability, T/C [20]: 110%
- viability, T/C [21]: 103%
- viability, T/C [22]: 108%
- viability, T/C [23]: 98.3%
- viability, T/C [24]: 89.9%
- viability, T/C [25]: 91.1%
- viability, T/C [26]: 86.9%
- viability, T/C [27]: 100%
- viability, T/C [28]: 92.3%
- viability, T/C [29]: 96.4%
- viability, T/C [30]: 74.9%
- viability, T/C [31]: 95.4%
- viability, T/C [32]: 105%
- viability, T/C [33]: 96.3%
- viability, T/C [34]: 110%
- viability, T/C [35]: 99%
- viability, T/C [36]: 70%
- viability, T/C [37]: 95.3%
- viability, T/C [38]: 82.5%
- viability, T/C [39]: 84.5%
- viability, T/C [40]: 80.8%
- viability, T/C [41]: 78.4%
- viability, T/C [42]: 75.1%

- IC50 [1]: > 10 µM
- IC50 [2]: > 10 µM
- IC50 [3]: > 10 µM
- IC50 [4]: > 10 µM
- IC50 [5]: > 10 µM
- IC50 [6]: < 0.0316 µM
Compound: C[C@@H](NC(=O)c1ncnc(N)c1Cl)c1ncc(C(=O)Nc2cc(C(F)(F)F)c(Cl)cn2)s1 + Cc1nc(NC(=O)N2CCCC2C(N)=O)sc1-c1ccnc(C(C)(C)C(F)(F)F)c1
- viability, T/C [7]: 103%
- viability, T/C [8]: 78.6%
- viability, T/C [9]: 95.9%
- viability, T/C [10]: 87.3%
- viability, T/C [11]: 86.6%
- viability, T/C [12]: 60.6%
- viability, T/C [13]: 94.6%
- viability, T/C [14]: 95.4%
- viability, T/C [15]: 98%
- viability, T/C [16]: 97.2%
- viability, T/C [17]: 96.7%
- viability, T/C [18]: 66.2%
- viability, T/C [19]: 77.7%
- viability, T/C [20]: 89.7%
- viability, T/C [21]: 86.5%
- viability, T/C [22]: 90.8%
- viability, T/C [23]: 89.6%
- viability, T/C [24]: 77.8%
- viability, T/C [25]: 65.3%
- viability, T/C [26]: 87.1%
- viability, T/C [27]: 76.4%
- viability, T/C [28]: 75.3%
- viability, T/C [29]: 78.4%
- viability, T/C [30]: 67.7%
- viability, T/C [31]: 53.9%
- viability, T/C [32]: 59.8%
- viability, T/C [33]: 70.1%
- viability, T/C [34]: 59.7%
- viability, T/C [35]: 66.5%
- viability, T/C [36]: 37.8%
- viability, T/C [37]: 32.1%
- viability, T/C [38]: 38.4%
- viability, T/C [39]: 37.8%
- viability, T/C [40]: 39.2%
- viability, T/C [41]: 36.1%
- viability, T/C [42]: 16.7%

- IC50 (curve of compound): > 10 µM
Compound: CNC(=O)c1ccc(N2C(=S)N(c3ccc(C#N)c(C(F)(F)F)c3)C(=O)C2(C)C)cc1F
- viability, T/C (compound 0.0316 µM): 106% [middle of 4 runs]
- viability, T/C (compound 0.1 µM): 102% [middle of 4 runs]
- viability, T/C (compound 0.316 µM): 96.3% and 107% (2×) and 116%
- viability, T/C (compound 1 µM): 100% [middle of 4 runs]
- viability, T/C (compound 3.16 µM): 99.1% and 122% and 104% (2×)
- viability, T/C (compound 10 µM): 96.7% [middle of 4 runs]

- IC50 (curve of first compound, second compound 0.00316 µM): > 3 µM
- IC50 (curve of first compound, second compound 0.01 µM): > 3 µM
- IC50 [1]: > 3 µM
- IC50 [2]: > 3 µM
- IC50 [3]: 2.27 µM
- IC50 [4]: 0.252 µM
Compound: Cn1cnc2c(F)c(Nc3ccc(Br)cc3Cl)c(C(=O)NOCCO)cc21 + CC(Nc1ccc2c(c1)OCCn1cc(N3C(=O)OCC3C(F)F)nc1-2)C(N)=O
- viability, T/C (second compound 0.00316 µM, first compound 0.00949 µM): 98%
- viability, T/C (second compound 0.00316 µM, first compound 0.03 µM): 75.2%
- viability, T/C (second compound 0.00316 µM, first compound 0.0949 µM): 92.6%
- viability, T/C (second compound 0.00316 µM, first compound 0.3 µM): 78%
- viability, T/C (second compound 0.00316 µM, first compound 0.949 µM): 79.2%
- viability, T/C (second compound 0.00316 µM, first compound 3 µM): 54.9%
- viability, T/C (second compound 0.01 µM, first compound 0.00949 µM): 93.2%
- viability, T/C (second compound 0.01 µM, first compound 0.03 µM): 78.7%
- viability, T/C (second compound 0.01 µM, first compound 0.0949 µM): 87%
- viability, T/C (second compound 0.01 µM, first compound 0.3 µM): 78.7%
- viability, T/C (second compound 0.01 µM, first compound 0.949 µM): 75.6%
- viability, T/C (second compound 0.01 µM, first compound 3 µM): 56%
- viability, T/C (second compound 0.0316 µM, first compound 0.00949 µM): 90%
- viability, T/C (second compound 0.0316 µM, first compound 0.03 µM): 97.1%
- viability, T/C (second compound 0.0316 µM, first compound 0.0949 µM): 96%
- viability, T/C (second compound 0.0316 µM, first compound 0.3 µM): 83.5%
- viability, T/C (second compound 0.0316 µM, first compound 0.949 µM): 83.7%
- viability, T/C (second compound 0.0316 µM, first compound 3 µM): 65.1%
- viability, T/C (second compound 0.1 µM, first compound 0.00949 µM): 88.4%
- viability, T/C (second compound 0.1 µM, first compound 0.03 µM): 87.3%
- viability, T/C (second compound 0.1 µM, first compound 0.0949 µM): 84.2%
- viability, T/C (second compound 0.1 µM, first compound 0.3 µM): 80.5%
- viability, T/C (second compound 0.1 µM, first compound 0.949 µM): 81.6%
- viability, T/C (second compound 0.1 µM, first compound 3 µM): 55.9%
- viability, T/C (second compound 0.316 µM, first compound 0.00949 µM): 80.9%
- viability, T/C (second compound 0.316 µM, first compound 0.03 µM): 81%
- viability, T/C (second compound 0.316 µM, first compound 0.0949 µM): 67.1%
- viability, T/C (second compound 0.316 µM, first compound 0.3 µM): 68%
- viability, T/C (second compound 0.316 µM, first compound 0.949 µM): 63.4%
- viability, T/C (second compound 0.316 µM, first compound 3 µM): 45.4%
- viability, T/C (second compound 1 µM, first compound 0.00949 µM): 72.2%
- viability, T/C (second compound 1 µM, first compound 0.03 µM): 57.1%
- viability, T/C (second compound 1 µM, first compound 0.0949 µM): 55.4%
- viability, T/C (second compound 1 µM, first compound 0.3 µM): 52.8%
- viability, T/C (second compound 1 µM, first compound 0.949 µM): 40.8%
- viability, T/C (second compound 1 µM, first compound 3 µM): 24.7%

- IC50 (curve of compound): > 10 µM
Compound: Cn1nccc1Nc1nccc(-c2ccn(C(CO)c3ccc(Cl)c(F)c3)c(=O)c2)n1 (configuration not stated)
- viability, T/C (compound 0.0316 µM): 107% [middle of 4 runs]
- viability, T/C (compound 0.1 µM): 91.8% [middle of 4 runs]
- viability, T/C (compound 0.316 µM): 110% [middle of 4 runs]
- viability, T/C (compound 1 µM): 94.6% [middle of 4 runs]
- viability, T/C (compound 3.16 µM): 106% [middle of 4 runs]
- viability, T/C (compound 10 µM): 96.2% [middle of 4 runs]

- IC50 [1]: 0.0998 µM
- IC50 [2]: 0.105 µM
- IC50 [3]: 0.157 µM
- IC50 [4]: 0.115 µM
- IC50 [5]: 0.0324 µM
- IC50 [6]: < 0.0316 µM
Compound: Cn1ncc(Cl)c1-c1cc(C(=O)NC(CN)Cc2cccc(F)c2)sc1Cl (configuration not stated) + Cc1nc(NC(=O)N2CCCC2C(N)=O)sc1-c1ccnc(C(C)(C)C(F)(F)F)c1
- viability, T/C [7]: 78.8%
- viability, T/C [8]: 46.8%
- viability, T/C [9]: 32.6%
- viability, T/C [10]: 20.9%
- viability, T/C [11]: 17.9%
- viability, T/C [12]: 3.64%
- viability, T/C [13]: 79.4%
- viability, T/C [14]: 45%
- viability, T/C [15]: 36.2%
- viability, T/C [16]: 21.6%
- viability, T/C [17]: 16.7%
- viability, T/C [18]: 4.82%
- viability, T/C [19]: 64.3%
- viability, T/C [20]: 63.8%
- viability, T/C [21]: 31.2%
- viability, T/C [22]: 23%
- viability, T/C [23]: 19.3%
- viability, T/C [24]: 4.88%
- viability, T/C [25]: 59.5%
- viability, T/C [26]: 53.6%
- viability, T/C [27]: 36.9%
- viability, T/C [28]: 21.2%
- viability, T/C [29]: 14.4%
- viability, T/C [30]: 3.77%
- viability, T/C [31]: 48.9%
- viability, T/C [32]: 44.9%
- viability, T/C [33]: 25.4%
- viability, T/C [34]: 18.1%
- viability, T/C [35]: 11.6%
- viability, T/C [36]: 4.32%
- viability, T/C [37]: 34.2%
- viability, T/C [38]: 29.4%
- viability, T/C [39]: 21.9%
- viability, T/C [40]: 14.8%
- viability, T/C [41]: 8.76%
- viability, T/C [42]: 3.16%

— PubChem BioAssay AID1963981 (Molecular Pharmacology Branch, DTP, NCI, 2024)
